From patent publication US20060069132A1, “Azolecarboxamide herbicides” (priority 2004, published 2006)

Assays:
velvetleaf = assay: Test B pre-/postemergence herbicide test; type: in vivo, Abutilon theophrasti; settings: for Velvetleaf plant response rating: postemergence
Method in brief: (§1)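 Visual rating, 0 (no effect) to 100 (complete control), versus untreated controls after 13–15 d in greenhouse. Pre- and postemergence applications (postemergence plants 2–18 cm, 1–4 leaves); flooded paddy arm at 2-leaf stage. Compounds in non-phytotoxic solvent plus surfactant.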

giant foxtail = assay: Test B pre-/postemergence herbicide test; type: in vivo, Setaria faberi
Method in brief: as §1

cocklebur = assay: Test B pre-/postemergence herbicide test; type: in vivo, Xanthium strumarium
Method in brief: as §1

lambsquarters = assay: Test B pre-/postemergence herbicide test; type: in vivo, Chenopodium album; settings: for Lambsquarters plant response rating: postemergence
Method in brief: as §1

[1] = system: small flower umbrella sedge; assay: Test B flooded paddy test; type: in vivo, Cyperus difformis; settings: 1000 g ai/ha, scale 0 to 100 (0 no effect, 100 complete control)
Method in brief: (§2)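 Visual ratings, 0 (no effect) to 100 (complete control), made versus controls after 13–15 d greenhouse. Paddy plants treated at 2-leaf stage; postemergence plants at 1- to 4-leaf stage, 2–18 cm tall.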

morningglory = assay: Test B pre-/postemergence herbicide test; type: in vivo, Ipomoea coccinea; settings: for Morningglory plant response rating: postemergence
Method in brief: as §1

blackgrass = assay: Test B postemergence herbicide test; type: in vivo, Alopecurus myosuroides; settings: for Blackgrass plant response rating: postemergence
Method in brief: as §2

rice = assay: Test B flooded paddy test; type: in vivo, Oryza sativa; settings: 1000 g ai/ha, scale 0 to 100 (0 no effect, 100 complete control)
Method in brief: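 Read-out: visual comparison with controls, scored 0 to 100, where 100 means complete control and 0 no effect. Formulated chemicals were applied postemergence to plants 2–18 cm tall (1- to 4-leaf), or to flooded-paddy plants at the 2-leaf stage, then held 13 to 15 days under glass.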

wild oat = assay: Test B postemergence herbicide test; type: in vivo, Avena fatua; settings: for Oat, Wild plant response rating: postemergence
Method in brief: (§3)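 Treated at 2-leaf (paddy) or 1–4-leaf, 2–18 cm (postemergence); greenhouse 13–15 d; visual score vs control, 0 none to 100 complete control; dash = not tested.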

corn = assay: Test B pre-/postemergence herbicide test; type: in vivo, Zea mays
Method in brief: as §1

barnyardgrass = assay: Test B flooded paddy test; type: in vivo, Echinochloa crus-galli; settings: 1000 g ai/ha, scale 0 to 100 (0 no effect, 100 complete control)
Method in brief: as §2

ducksalad = assay: Test B flooded paddy test; type: in vivo, Heteranthera limosa; settings: 1000 g ai/ha, scale 0 to 100 (0 no effect, 100 complete control)
Method in brief: as §2

wheat = assay: Test B postemergence herbicide test; type: in vivo, Triticum aestivum; set-up: key to Wheat plant response rating: 0 = no effect, 100 = complete control; settings: for Wheat plant response rating: postemergence
Method in brief: as §3

pigweed = assay: Test B pre-/postemergence herbicide test; type: in vivo, Amaranthus retroflexus; settings: for Pigweed plant response rating: postemergence
Method in brief: as §1

Surinam grass = assay: Test B pre-/postemergence herbicide test; type: in vivo, Urochloa decumbens; settings: for Surinam Grass plant response rating: postemergence
Method in brief: as §1

[2] = 125 g ai/ha, 0 = no effect, 100 = complete control, preemergence
[3] = 500 g ai/ha, visual rating, 0 = no effect, 100 = complete control, preemergence
[4] = 125 g ai/ha, visual rating, scale 0 (no effect) to 100 (complete control)
[5] = 500 g ai/ha, scale 0 to 100, 0 is no effect, 100 is complete control
[6] = postemergence, 125 g ai/ha, visual rating, scale 0 (no effect) to 100 (complete control)
[7] = postemergence, 500 g ai/ha, scale 0 to 100, 0 is no effect, 100 is complete control
[8] = postemergence, 500 g ai/ha, visual rating, scale 0 (no effect) to 100 (complete control)
[9] = 500 g ai/ha, visual rating, scale 0 (no effect) to 100 (complete control)
[10] = 500 g ai/ha, visual rating 0-100, 0 no effect, 100 complete control, preemergence
[11] = preemergence, 125 g ai/ha, 0 to 100 scale, 0 is no effect, 100 is complete control
[12] = Postemergence, 500 g ai/ha, visual rating after 13 to 15 days, scale 0 (no effect) to 100 (complete control)
[13] = Preemergence, 500 g ai/ha, scale 0 to 100

## CCn1nc(C(C)(C)C)cc1C(=O)Nc1cc(C(=O)N(C)OC)ccc1F [Compound 244]
velvetleaf; [2]
  Velvetleaf plant response rating (0 to 100 scale): 70
velvetleaf; [3]
  Plant response rating, Velvetleaf: 100
velvetleaf; [4]
  Velvetleaf plant response rating: 40
velvetleaf; [5]
  Velvetleaf plant response rating: 60
Giant foxtail; [2]
  Foxtail, Giant plant response rating (0 to 100 scale): 80
Giant foxtail; [3]
  Plant response rating, Foxtail, Giant: 90
Giant foxtail; [6]
  Foxtail, Giant plant response rating: 20
Giant foxtail; [7]
  Foxtail, Giant plant response rating: 30
cocklebur; [2]
  Cocklebur plant response rating (0 to 100 scale): 0
cocklebur; [3]
  Plant response rating, Cocklebur: 20
cocklebur; [6]
  Cocklebur plant response rating: 30
cocklebur; [8]
  Cocklebur plant response rating: 80
lambsquarters; [2]
  Lambsquarters plant response rating (0 to 100 scale): 90
lambsquarters; [3]
  Plant response rating, Lambsquarters: 100
lambsquarters; [4]
  Lambsquarters plant response rating: 40
lambsquarters; [5]
  Lambsquarters plant response rating: 70
[1]
  Sedge, Umbrella plant response rating: 80
morningglory; [2]
  Morningglory plant response rating (0 to 100 scale): 0
morningglory; [3]
  Plant response rating, Morningglory: 20
morningglory; [4]
  Morningglory plant response rating: 10
morningglory; [5]
  Morningglory plant response rating: 20
blackgrass; [4]
  Blackgrass plant response rating: 10
blackgrass; [9]
  Blackgrass plant response rating: 20
rice
  Rice plant response rating: 90
Wild oat; [4]
  Oat, Wild plant response rating: 30
Wild oat; [5]
  Oat, Wild plant response rating: 50
corn; [2]
  Corn plant response rating (0 to 100 scale): 30
corn; [3]
  Plant response rating, Corn: 60
corn; [6]
  Corn plant response rating: 10
corn; [7]
  Corn plant response rating: 30
barnyardgrass
  Barnyardgrass plant response rating: 90
ducksalad
  Ducksalad plant response rating: 90
wheat; [4]
  Wheat plant response rating: 10
wheat; [5]
  Wheat plant response rating: 20
pigweed; [2]
  Pigweed plant response rating (0 to 100 scale): 90
pigweed; [3]
  Plant response rating, Pigweed: 100
pigweed; [4]
  Pigweed plant response rating: 50
pigweed; [5]
  Pigweed plant response rating: 70
Surinam grass; [2]
  Surinam Grass plant response rating (0 to 100 scale): 70
Surinam grass; [3]
  Plant response rating, Surinam Grass: 90
Surinam grass; [4]
  Surinam Grass plant response rating: 20
Surinam grass; [5]
  Surinam Grass plant response rating: 30

## CCn1nc(C(C)(C)C)cc1C(=O)Nc1nc(C(=O)N2CC=CC2)ccc1F [Compound 281]
velvetleaf; [2]
  Velvetleaf plant response rating (0 to 100 scale): 10
velvetleaf; [3]
  Plant response rating, Velvetleaf: 70
velvetleaf; [4]
  Velvetleaf plant response rating: 0
velvetleaf; [5]
  Velvetleaf plant response rating: 20
Giant foxtail; [2]
  Foxtail, Giant plant response rating (0 to 100 scale): 10
Giant foxtail; [3]
  Plant response rating, Foxtail, Giant: 60
Giant foxtail; [6]
  Foxtail, Giant plant response rating: 10
Giant foxtail; [7]
  Foxtail, Giant plant response rating: 10
cocklebur; [2]
  Cocklebur plant response rating (0 to 100 scale): 0
cocklebur; [3]
  Plant response rating, Cocklebur: 0
cocklebur; [6]
  Cocklebur plant response rating: 20
cocklebur; [7]
  Cocklebur plant response rating: 20
lambsquarters; [2]
  Lambsquarters plant response rating (0 to 100 scale): 90
lambsquarters; [3]
  Plant response rating, Lambsquarters: 100
lambsquarters; [4]
  Lambsquarters plant response rating: 20
lambsquarters; [5]
  Lambsquarters plant response rating: 30
[1]
  Sedge, Umbrella plant response rating: 70
morningglory; [2]
  Morningglory plant response rating (0 to 100 scale): 0
morningglory; [3]
  Plant response rating, Morningglory: 20
morningglory; [4]
  Morningglory plant response rating: 0
morningglory; [5]
  Morningglory plant response rating: 10
blackgrass; [4]
  Blackgrass plant response rating: 20
blackgrass; [5]
  Blackgrass plant response rating: 30
rice
  Rice plant response rating: 70
Wild oat; [4]
  Oat, Wild plant response rating: 10
Wild oat; [5]
  Oat, Wild plant response rating: 20
corn; [2]
  Corn plant response rating (0 to 100 scale): 0
corn; [3]
  Plant response rating, Corn: 0
corn; [6]
  Corn plant response rating: 0
corn; [7]
  Corn plant response rating: 10
barnyardgrass
  Barnyardgrass plant response rating: 70
ducksalad
  Ducksalad plant response rating: 80
wheat; [4]
  Wheat plant response rating: 30
wheat; [5]
  Wheat plant response rating: 30
pigweed; [2]
  Pigweed plant response rating (0 to 100 scale): 100
pigweed; [3]
  Plant response rating, Pigweed: 100
pigweed; [4]
  Pigweed plant response rating: 20
pigweed; [5]
  Pigweed plant response rating: 30
Surinam grass; [2]
  Surinam Grass plant response rating (0 to 100 scale): 10
Surinam grass; [3]
  Plant response rating, Surinam Grass: 40
Surinam grass; [4]
  Surinam Grass plant response rating: 10
Surinam grass; [5]
  Surinam Grass plant response rating: 20

## CCCCOc1cccc(NC(=O)c2cc(C(C)(C)C)nn2CC)c1 [Compound 137]
velvetleaf; [10]
  Plant response rating, Velvetleaf: 60
velvetleaf; [4]
  Velvetleaf plant response rating: 40
velvetleaf; [9]
  Velvetleaf plant response rating: 60
velvetleaf; [11]
  Plant response rating, Velvetleaf: 10
Giant foxtail; [10]
  Plant response rating, Foxtail, Giant: 80
Giant foxtail; [6]
  Foxtail, Giant plant response rating: 10
Giant foxtail; [8]
  Foxtail, Giant plant response rating: 20
Giant foxtail; [11]
  Plant response rating, Foxtail, Giant: 40
cocklebur; [10]
  Plant response rating, Cocklebur: 0
cocklebur; [6]
  Cocklebur plant response rating: 50
cocklebur; [8]
  Cocklebur plant response rating: 100
cocklebur; [11]
  Plant response rating, Cocklebur: 0
lambsquarters; [10]
  Plant response rating, Lambsquarters: 80
lambsquarters; [4]
  Lambsquarters plant response rating: 80
lambsquarters; [9]
  Lambsquarters plant response rating: 80
lambsquarters; [11]
  Plant response rating, Lambsquarters: 10
[1]; visual rating, 13 to 15 days
  Sedge, Umbrella plant response rating: 90
morningglory; [10]
  Plant response rating, Morningglory: 20
morningglory; [4]
  Morningglory plant response rating: 0
morningglory; [9]
  Morningglory plant response rating: 60
morningglory; [11]
  Plant response rating, Morningglory: 0
blackgrass; [4]
  Blackgrass plant response rating: 10
blackgrass; [9]
  Blackgrass plant response rating: 20
rice; visual rating, 13 to 15 days
  Rice plant response rating: 20
Wild oat; [4]
  Oat, Wild plant response rating: 30
Wild oat; [9]
  Oat, Wild plant response rating: 70
corn; [10]
  Plant response rating, Corn: 10
corn; [6]
  Corn plant response rating: 10
corn; [8]
  Corn plant response rating: 20
corn; [11]
  Plant response rating, Corn: 10
barnyardgrass; visual rating, 13 to 15 days
  Barnyardgrass plant response rating: 20
ducksalad; visual rating, 13 to 15 days
  Ducksalad plant response rating: 30
wheat; [4]
  Wheat plant response rating: 10
wheat; [9]
  Wheat plant response rating: 20
pigweed; [10]
  Plant response rating, Pigweed: 100
pigweed; [4]
  Pigweed plant response rating: 90
pigweed; [9]
  Pigweed plant response rating: 100
pigweed; [11]
  Plant response rating, Pigweed: 80
Surinam grass; [10]
  Plant response rating, Surinam Grass: 80
Surinam grass; [4]
  Surinam Grass plant response rating: 20
Surinam grass; [9]
  Surinam Grass plant response rating: 70
Surinam grass; [11]
  Plant response rating, Surinam Grass: 20

## CCn1nc(C(C)(C)C)cc1C(=O)Nc1cccc(C(=O)NCC2CC2)c1 [Compound 62]
velvetleaf; [12]
  Plant response rating, Velvetleaf: 70
velvetleaf; [4]
  Velvetleaf plant response rating: 60
velvetleaf; [11]
  Plant response rating, Velvetleaf: 80
Giant foxtail; [12]
  Plant response rating, Foxtail, Giant: 30
Giant foxtail; [13]
  Foxtail, Giant plant response rating: 90
Giant foxtail; [6]
  Foxtail, Giant plant response rating: 10
Giant foxtail; [11]
  Plant response rating, Foxtail, Giant: 70
cocklebur; [12]
  Plant response rating, Cocklebur: 100
cocklebur; [13]
  Cocklebur plant response rating: 10
cocklebur; [6]
  Cocklebur plant response rating: 70
cocklebur; [11]
  Plant response rating, Cocklebur: 0
lambsquarters; [12]
  Plant response rating, Lambsquarters: 90
lambsquarters; [4]
  Lambsquarters plant response rating: 80
lambsquarters; [11]
  Plant response rating, Lambsquarters: 100
[1]; visual rating, 13 to 15 days
  Sedge, Umbrella plant response rating: 80
morningglory; [12]
  Plant response rating, Morningglory: 60
morningglory; [4]
  Morningglory plant response rating: 20
morningglory; [11]
  Plant response rating, Morningglory: 10
blackgrass; [12]
  Plant response rating, Blackgrass: 70
blackgrass; [4]
  Blackgrass plant response rating: 10
rice; visual rating, 13 to 15 days
  Rice plant response rating: 30
Wild oat; [12]
  Plant response rating, Oat, Wild: 30
Wild oat; [4]
  Oat, Wild plant response rating: 10
corn; [12]
  Plant response rating, Corn: 20
corn; [13]
  Corn plant response rating: 10
corn; [6]
  Corn plant response rating: 10
corn; [11]
  Plant response rating, Corn: 0
barnyardgrass; visual rating, 13 to 15 days
  Barnyardgrass plant response rating: 70
ducksalad; visual rating, 13 to 15 days
  Ducksalad plant response rating: 80
wheat; [12]
  Plant response rating, Wheat: 10
wheat; [4]
  Wheat plant response rating: 0
pigweed; [12]
  Plant response rating, Pigweed: 90
pigweed; [4]
  Pigweed plant response rating: 80
pigweed; [11]
  Plant response rating, Pigweed: 100
Surinam grass; [12]
  Plant response rating, Surinam Grass: 70
Surinam grass; [4]
  Surinam Grass plant response rating: 50
Surinam grass; [11]
  Plant response rating, Surinam Grass: 10
